# In PubChem BioAssay (NCI):
# “And” between values parts separate entries of the source, which are not always exact repeats. Equal entries are not always repeated.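 Results reflect a 48-hour exposure of cells in 96-well plates to compound at five concentrations. At the GI50, growth is halved. TGI is the concentration that stops growth completely.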
# What was measured:
# Experiment in all cases: NCI anticancer screen, dose series, 48 h
# [1] = system: KM12 colon
# [2] = system: UACC-257 melanoma
# [3] = system: SK-MEL-5 melanoma
# [4] = system: NCI-H23 lung
# [5] = system: K-562 leukemia
# [6] = system: M14 melanoma
# [7] = system: RXF 393 renal
# [8] = system: HL-60(TB) leukemia
# [9] = system: NCI-H460 lung
# [10] = system: CAKI-1 renal
Compound,GI50 [1],TGI [1],GI50 [2] [µM],TGI [2],GI50 [3] [µM],TGI [3],GI50 [4],TGI [4],GI50 [5],TGI [5],GI50 [6],TGI [6],GI50 [7] [µM],TGI [7],GI50 [8],TGI [8],GI50 [9] [µM],TGI [9],GI50 [10],TGI [10]
C[CH2][Sn]([CH2]C)([O]C(=O)c1cc(OC)c(OC)c(OC)c1)[O][Sn]([CH2]C)([CH2]C)[O]C(=O)c1cc(OC)c(OC)c(OC)c1,> 100 µM,> 100 µM,21.3,52 µM,74.4,> 100 µM,16.7 µM,36.5 µM,20.9 µM,> 64.9 µM,32.5 µM,> 78.9 µM,12.4,27.9 µM,35.1 µM,> 100 µM,> 100,> 100 µM,15.7 µM,29.8 µM
COC12c3ccccc3-c3ccccc3C1[C@@H](C(=O)O)[C@H]2C(=O)O (stereo partly drawn),–,> 10 µM,–,> 10 µM,–,> 10 µM,–,> 10 µM,–,> 10 µM,–,> 10 µM,–,> 10 µM,–,> 10 µM,–,> 10 µM,–,> 10 µM
CC[C@]12C=CCN3CC[C@]4(C(=C(C(=O)OC)C1)Nc1ccccc14)[C@@H]32,3.65 µM,14.5 µM,5.06,26.5 µM,4.87,16.8 µM,4.37 µM,17.7 µM,3.08 µM,15.1 µM,2.97 µM,12.5 µM,2.51,7.24 µM,3.18 µM,11.5 µM,4.11,16.3 µM,4.7 µM,17.3 µM
Cn1cccc1C1CC(=O)N(CCC[Se]C#N)C1=O (stereo not drawn),2.11 µM,5.36 µM,1.95,4.73 µM,1.96,4.05 µM,2.6 µM,7.88 µM,3.2 µM,29.9 µM,1.56 µM,3.89 µM,1.74,3.43 µM,2.11 µM,4.68 µM,2.05,5.93 µM,1.92 µM,3.57 µM
O=[N+]([O-])c1ccc([I+]c2ccccc2)cc1,1.67 µM,9.64 µM and 3.15 µM,1.6,13.9 µM and 4.42 µM,1.54,21.2 µM and 2.93 µM,1.23 µM,5.98 µM and 2.74 µM,–,> 53.2 µM,1.97 µM,16.4 µM and 4.33 µM,1.87,10.8 µM and 3.76 µM,3.15 µM,27.4 µM and 9.73 µM,1.78,11.9 µM and 3.93 µM,0.289 µM,15 µM and 1.58 µM
COc1cc(-c2cn(-c3ccc(Cl)cc3)c(=O)n2-c2ccccc2)cc(OC)c1OC,> 69.9 µM,> 100 µM,> 82.6,> 100 µM,25.3,> 100 µM,> 100 µM,> 100 µM,> 100 µM,> 100 µM,> 100 µM,> 100 µM,25.4,> 81.9 µM,3.35 µM,> 38.5 µM,> 80.9,> 100 µM,> 100 µM,> 100 µM
COc1cc2c(cc1OCCCN1CCN(CCCOc3cc4c(cc3OC)C(=O)C3CCC[C@H]3C=N4)CC1)N=C[C@@H]1CCCC1C2=O (stereo partly drawn),22.7 µM,> 100 µM,13,> 46.4 µM,2.2,6.4 µM,5.42 µM,14.1 µM,2.09 µM,> 100 µM,6.25 µM,22.7 µM,3,17.5 µM,1.51 µM,4.1 µM,4.45,> 69.9 µM,26.5 µM,> 79.8 µM
Nc1nccc(C#Cc2cncnc2Nc2ccc(OCc3cccc(F)c3)c(Cl)c2)n1,4.52 µM,8.2 µM,3.92,7.64 µM,3.51,6.8 µM,4.22 µM,8.92 µM,4.24 µM,> 25 µM,4.51 µM,9.43 µM,4.02,8.9 µM,5.7 µM,14.5 µM,5.13,10.3 µM,5.37 µM,11 µM
CCN1C(=O)N(CC)C2C1NN=c1s/c(=C\c3ccc([N+](=O)[O-])cc3)c(=O)n12 (stereo not drawn),0.342 µM,> 100 µM,1.17,70 µM,0.343,12.1 µM,1.11 µM,> 100 µM,0.35 µM,> 100 µM,0.401 µM,> 43 µM,0.451,–,0.31 µM,1.12 µM,0.369,> 100 µM,0.395 µM,> 46.4 µM
O=C1/C(=C\c2ccccc2)CN(C(=O)c2ccccc2F)C/C1=C\c1ccccc1,1.37 µM,3.11 µM,2.15,4.79 µM,1.7,3.23 µM,2.13 µM,4.84 µM,0.992 µM,> 20.7 µM,2.51 µM,7.12 µM,1.8,3.41 µM,2.78 µM,7.36 µM,2.67,7.35 µM,3.4 µM,12.8 µM
CCN=C(N)CSS(=O)(=O)O,–,> 100 µM,–,> 100 µM,–,> 100 µM,–,> 100 µM,–,> 100 µM,–,> 100 µM,–,> 100 µM,–,> 100 µM,–,> 100 µM,–,> 100 µM
Cn1cc(-c2ccc3c(c2)ncn3-c2ccc(CC(=O)Nc3cc(C(C)(C)C)on3)cc2)cn1,–,14.3 µM,3.18,53.7 µM,2.5,15.5 µM,1.88 µM,17.2 µM,0.0284 µM,> 100 µM,1.1 µM,10.5 µM,0.173,0.908 µM,3.33 µM,9.65 µM,2.45,> 37.7 µM,0.782 µM,2.43 µM
COc1cc2c(c(Br)c1N)-c1cc(Br)c(N)cc1C2=O,> 85.1 µM,> 100 µM,> 100,> 100 µM,5.39,> 100 µM,4.3 µM,> 100 µM,> 100 µM,> 100 µM,50.9 µM,> 100 µM,> 100,> 100 µM,> 100 µM,> 100 µM,3.21,> 100 µM,> 100 µM,> 100 µM
O=S(=O)(Nc1ccc2ccc3cccc4ccc1c2c34)c1ccccc1,–,> 100 µM,–,> 100 µM,–,> 100 µM,–,> 100 µM,–,> 100 µM,–,> 100 µM,–,> 100 µM,–,> 100 µM,–,> 100 µM,–,> 100 µM
CC(=O)NNc1nc(C)c(C(/C=C/c2ccc3c(c2)OCO3)=N/NC(=O)c2ccncc2)s1,–,> 100 µM,–,> 100 µM,–,> 100 µM,–,> 100 µM,–,> 100 µM,–,> 100 µM,–,> 100 µM,–,> 100 µM,–,> 100 µM,–,> 100 µM
O=C(O)Cc1ccccc1,> 1000 µM,> 2000 µM,> 1000,> 2000 µM,> 1000,> 2000 µM,> 1000 µM,> 2000 µM,> 1000 µM,> 1000 µM and 1010 µM,> 1000 µM,> 2000 µM,> 1000,> 1000 µM and 1940 µM,> 1000 µM,> 1000 µM,> 1000,> 1000 µM and 933 µM,> 1000 µM,> 1000 µM
C/C=C(\C)C(=O)O[C@@H]1C=CC(=O)O[C@H]1COC(=O)[C@H](C)O,13.3 µM,27 µM,13.4,46.8 µM,12.6,25.1 µM,18.4 µM,50.6 µM,5.21 µM,> 100 µM,11.1 µM,30 µM,6.51,30 µM,4.41 µM,21.3 µM,12.7,28.6 µM,27 µM,42.9 µM
CN(C)CC1CCCC(CN(C)C)C1=O (stereo not drawn),6.05 µM and 17.2 µM,16.9 µM and 33.3 µM,–,4.49 µM and 5.8 µM,–,21 µM and 30.3 µM,5.35 µM and 20.7 µM,18.5 µM and 43.4 µM,0.119 µM and 0.677 µM,0.601 µM,1.48 µM and 6.11 µM,3.03 µM and 11.7 µM,–,3.29 µM and 3.25 µM,0.612 µM and 2.85 µM,2.03 µM and 7.45 µM,–,38.5 µM and 33.8 µM,1.39 µM and 0.259 µM,3.12 µM and 0.858 µM
CC1(C)CCC(CN2CCN(c3ccc(C(=O)NS(=O)(=O)c4ccc(NCC5CCOCC5)c([N+](=O)[O-])c4)c(Oc4cnc5[nH]ccc5c4)c3)CC2)=C(c2ccc(Cl)cc2)C1,2.98 µM,9.86 µM,1.98,4.94 µM,1.67,3.09 µM,3.13 µM,12.5 µM,3.5 µM,26.9 µM,2.54 µM,7.07 µM,1.57,3.48 µM,0.25 µM,2.33 µM,2.64,8.86 µM,2.91 µM,10.7 µM
CCOc1ccc(NC(=O)/C(=C/c2ccccc2)C(C)=O)cc1,–,27.5 µM,–,27.9 µM,–,25.6 µM,–,24.8 µM,–,41.4 µM,–,26 µM,–,19 µM,–,9.66 µM,–,30.9 µM,–,25.3 µM
C#CCSc1nnnn1-c1ccc(Br)c(C)c1,35 µM,> 100 µM,35.2,> 100 µM,16.5,33.9 µM,21.5 µM,88.6 µM,27.6 µM,> 100 µM,31.1 µM,> 100 µM,27.3,> 100 µM,27.3 µM,87 µM,31.5,> 100 µM,2.82 µM,17.6 µM
COc1ccccc1NS(=O)(=O)c1cc(C(C)(C)C)ccc1OCCOc1ccc(C(C)(C)C)cc1S(=O)(=O)Nc1ccccc1OC,–,> 100 µM,–,> 100 µM,–,> 100 µM,–,> 100 µM,–,> 100 µM,–,> 100 µM,–,> 100 µM,–,> 100 µM,–,> 100 µM,–,> 100 µM
COc1ccc(C2=NN(c3ccc(S(N)(=O)=O)cc3)C(c3ccc(Cl)cc3)C2)c(O)c1 (stereo not drawn),2.67 µM,7.91 µM,6.84,42 µM,6.24,19.1 µM,3.32 µM,13.7 µM,1.8 µM,4.09 µM,7.89 µM,25.2 µM,2.53,9.78 µM,1.86 µM,4.99 µM,2.31,6.08 µM,2.67 µM,8.64 µM
C[C@@H](Oc1cc(-n2cnc3ccc(OCC4CCN(C)CC4)cc32)sc1C(N)=O)c1ccccc1C(F)(F)F,0.0671 µM,0.991 µM,0.179,4.51 µM,0.217,2.95 µM,0.118 µM,3.37 µM,0.0832 µM,3.31 µM,0.0879 µM,1.25 µM,0.0879,3.32 µM,0.0708 µM,1.08 µM,0.0872,3.1 µM,1.91 µM,5.23 µM
CC1OC(OC2C(OC3CCC4(C)C(CCC5(C)C4CC=C4C6CC(C)(C)CCC6(CO)C(O)CC45C)C3(C)C)OC(C(=O)O)C(OC3OC(COC4OC(CO)C(O)C(O)C4O)C(O)C(O)C3O)C2O)C(O)C(O)C1O (stereo not drawn),3.25 µM,14.1 µM,13.2,26.3 µM,11.5,22.2 µM,1.77 µM,4.67 µM,3.09 µM,15.4 µM,2.5 µM,9.24 µM,8.94,19.8 µM,1.5 µM,3.53 µM,12.1,24.5 µM,10.6 µM,22.1 µM
Cc1ccc(NC(=O)CCC(=O)C2CC(=O)CCC2=O)cc1C (stereo not drawn),–,> 100 µM,–,> 100 µM,–,> 100 µM,–,> 100 µM,–,> 100 µM,–,> 100 µM,–,> 100 µM,–,> 100 µM,–,> 100 µM,–,> 100 µM
COc1cc2nc(-c3ccc(Cl)cc3)cc(OCCCN3CCC(O)CC3)c2cc1OC,3.13 µM,13.6 µM,2.06,4.56 µM,1.27,2.56 µM,2.83 µM,15 µM,1.63 µM,6.75 µM,0.591 µM,2.21 µM,1.22,4.07 µM,4.27 µM,18.7 µM,0.955,14 µM,0.416 µM,5.24 µM
